Test results published in US20230226005A1, “Methods of Treating, Ameliorating, Shortening Duration, and/or Reversing Symptoms and/or Complications of a Coronavirus Infection” (Yale University, priority 2020, published 2023).

Assays:
SARS-CoV-2 = experiment: Phase IIa double-blind placebo-controlled study, camostat mesylate 200 mg four times daily for seven days: viral load (log10) by COVID-19 RT-PCR of nasopharyngeal swab and saliva; type: in vivo; settings: for viral load Camostat LSMean Change (SE) / viral load change Difference (SE) between treatment groups: ANCOVA linear mixed model, n = 57; for viral load change Difference (SE) between treatment groups: placebo minus camostat
COVID-19 infection = experiment: Phase IIa study: smell/taste-family symptom score; type: in vivo; settings: for smell/taste-family symptoms, Fitzmaurice mixed effects model, Effect: Camostat vs Placebo
SARS-CoV-1 = settings: mice; reduced from 100%; concentration similar to clinically achievable concentration in humans; cited from earlier work
[1] = visit 3 (day 4), listed as Camostat

CN(C)C(=O)COC(=O)Cc1ccc(OC(=O)c2ccc(NC(=N)N)cc2)cc1 [camostat, 4-[[4-[(Aminoiminomethyl)amino]benzoyl]oxy]benzeneacetic acid 2-(dimethylamino)-2-oxoethyl ester]
viral load change Effect (camostat vs placebo), Fitzmaurice mixed model, visit 2 (SARS-CoV-2; S gene, day 2): 0.36 (−0.72, 1.43) log10
viral load, Fitzmaurice mixed model, visit 2 (SARS-CoV-2; S gene, day 2): 3.6 (2.6, 4.6) log10
viral load, Fitzmaurice mixed model, visit 2 change (SARS-CoV-2; S gene, day 2): −1.4 (−2.2, −0.5) log10
viral load change Effect (camostat vs placebo), Fitzmaurice mixed model, visit 3(D4) (SARS-CoV-2; S gene, day 4): −0.13 (−1.07, 0.8) log10
viral load, Fitzmaurice mixed model, visit 3(D4) (SARS-CoV-2; S gene, day 4): 2.7 (1.9, 3.5) log10
viral load, Fitzmaurice mixed model, visit 3(D4) change (SARS-CoV-2; S gene, day 4): −2.3 (−3.1, −1.5) log10
viral load change Effect (camostat vs placebo), Fitzmaurice mixed model, visit 4(D6) (SARS-CoV-2; S gene, day 6): 0.19 (−0.98, 1.36) log10
viral load, Fitzmaurice mixed model, visit 4(D6) (SARS-CoV-2; S gene, day 6): 1.7 (0.8, 2.6) log10
viral load, Fitzmaurice mixed model, visit 4(D6) change (SARS-CoV-2; S gene, day 6): −3.2 (−4.3, −2.2) log10
change in viral load from baseline, Mean (SARS-CoV-2; S gene, visit 1 (day 0)): 0.00 log10
change in viral load from baseline, Median (SARS-CoV-2; S gene, visit 1 (day 0)): 0.00 log10
viral load (log10) Mean (SARS-CoV-2; S gene, visit 1 (day 0)): 4.50 log10
viral load (log10) Median (SARS-CoV-2; S gene, visit 1 (day 0)): 5.02 log10
change in viral load from baseline, Mean (SARS-CoV-2; S gene, visit 2 (day 2)): −1.24 log10
change in viral load from baseline, Median (SARS-CoV-2; S gene, visit 2 (day 2)): −0.89 log10
viral load (log10) Mean (SARS-CoV-2; S gene, visit 2 (day 2)): 3.04 log10
viral load (log10) Median (SARS-CoV-2; S gene, visit 2 (day 2)): 3.22 log10
change in viral load from baseline, Mean (SARS-CoV-2; S gene, visit 3 (day 4)): −2.06 log10
change in viral load from baseline, Median (SARS-CoV-2; S gene, visit 3 (day 4)): −1.94 log10
viral load (log10) Mean (SARS-CoV-2; S gene, visit 3 (day 4)): 2.42 log10
viral load (log10) Median (SARS-CoV-2; S gene, visit 3 (day 4)): 1.01 log10
change in viral load from baseline, Mean (SARS-CoV-2; S gene, visit 4 (day 6)): −2.70 log10
change in viral load from baseline, Median (SARS-CoV-2; S gene, visit 4 (day 6)): −2.41 log10
viral load (log10) Mean (SARS-CoV-2; S gene, visit 4 (day 6)): 1.48 log10
viral load (log10) Median (SARS-CoV-2; S gene, visit 4 (day 6)): 0.00 log10
change in viral load from baseline, Mean (SARS-CoV-2; S gene, visit 5 (day 14)): −4.20 log10
change in viral load from baseline, Median (SARS-CoV-2; S gene, visit 5 (day 14)): −4.28 log10
viral load (log10) Mean (SARS-CoV-2; S gene, visit 5 (day 14)): 0.27 log10
viral load (log10) Median (SARS-CoV-2; S gene, visit 5 (day 14)): 0.00 log10
change in viral load from baseline, Mean (SARS-CoV-2; S gene, visit 6 (day 28)): −4.37 log10
change in viral load from baseline, Median (SARS-CoV-2; S gene, visit 6 (day 28)): −4.88 log10
viral load (log10) Mean (SARS-CoV-2; S gene, visit 6 (day 28)): 0.00 log10
viral load (log10) Median (SARS-CoV-2; S gene, visit 6 (day 28)): 0.00 log10
viral load Camostat LSMean Change (SE) (SARS-CoV-2; visit 2 (day 2)): −1.10 (0.30) log10
viral load change Difference (SE) between treatment groups (SARS-CoV-2; visit 2 (day 2)): −0.01 (0.42) log10
viral load Camostat LSMean Change (SE) (SARS-CoV-2; visit 3 (day 4)): −1.94 log10
viral load Camostat LSMean Change (SE) (SARS-CoV-2; [1]): −1.94 (0.32) log10
viral load change Difference (SE) between treatment groups (SARS-CoV-2; visit 3 (day 4)): −0.69 log10
viral load change Difference (SE) between treatment groups (SARS-CoV-2; [1]): −0.69 (0.45) log10
viral load Camostat LSMean Change (SE) (SARS-CoV-2; visit 4 (day 6)): −3.22 (0.46) log10
viral load change Difference (SE) between treatment groups (SARS-CoV-2; visit 4 (day 6)): −0.39 (0.63) log10
smell/taste-family symptoms, Fitzmaurice mixed effects model, Camostat (COVID-19 infection; Day 0): 1.4 (0.2)
smell/taste-family symptoms, Fitzmaurice mixed effects model, Camostat (COVID-19 infection; Day 1): 1.4 (0.2)
smell/taste-family symptoms, Fitzmaurice mixed effects model, Effect (COVID-19 infection; Day 1): 0.5 (0.3)
smell/taste-family symptoms, Fitzmaurice mixed effects model, Camostat (COVID-19 infection; Day 2): 1.4 (0.2)
smell/taste-family symptoms, Fitzmaurice mixed effects model, Effect (COVID-19 infection; Day 2): 0.7 (0.3)
smell/taste-family symptoms, Fitzmaurice mixed effects model, Camostat (COVID-19 infection; Day 3): 1.3 (0.2)
smell/taste-family symptoms, Fitzmaurice mixed effects model, Effect (COVID-19 infection; Day 3): 1 (0.3)
smell/taste-family symptoms, Fitzmaurice mixed effects model, Camostat (COVID-19 infection; Day 4): 1.2 (0.2)
smell/taste-family symptoms, Fitzmaurice mixed effects model, Effect (COVID-19 infection; Day 4): 1 (0.3)
smell/taste-family symptoms, Fitzmaurice mixed effects model, Camostat (COVID-19 infection; Day 5): 1.1 (0.2)
smell/taste-family symptoms, Fitzmaurice mixed effects model, Effect (COVID-19 infection; Day 5): 1.2 (0.3)
smell/taste-family symptoms, Fitzmaurice mixed effects model, Camostat (COVID-19 infection; Day 6): 1 (0.2)
smell/taste-family symptoms, Fitzmaurice mixed effects model, Effect (COVID-19 infection; Day 6): 0.7 (0.3)
smell/taste-family symptoms, Fitzmaurice mixed effects model, Camostat (COVID-19 infection; Day 7): 0.8 (0.2)
smell/taste-family symptoms, Fitzmaurice mixed effects model, Effect (COVID-19 infection; Day 7): 0.7 (0.3)
smell/taste-family symptoms, Fitzmaurice mixed effects model, Camostat (COVID-19 infection; Day 8): 0.8 (0.2)
smell/taste-family symptoms, Fitzmaurice mixed effects model, Effect (COVID-19 infection; Day 8): 0.8 (0.3)
smell/taste-family symptoms, Fitzmaurice mixed effects model, Camostat (COVID-19 infection; Day 9): 0.9 (0.2)
smell/taste-family symptoms, Fitzmaurice mixed effects model, Effect (COVID-19 infection; Day 9): 0.6 (0.3)
smell/taste-family symptoms, Fitzmaurice mixed effects model, Camostat (COVID-19 infection; Day 10): 0.9 (0.2)
smell/taste-family symptoms, Fitzmaurice mixed effects model, Effect (COVID-19 infection; Day 10): 0.5 (0.3)
smell/taste-family symptoms, Fitzmaurice mixed effects model, Camostat (COVID-19 infection; Day 11): 0.9 (0.2)
smell/taste-family symptoms, Fitzmaurice mixed effects model, Effect (COVID-19 infection; Day 11): 0.3 (0.3)
smell/taste-family symptoms, Fitzmaurice mixed effects model, Camostat (COVID-19 infection; Day 12): 0.9 (0.2)
smell/taste-family symptoms, Fitzmaurice mixed effects model, Effect (COVID-19 infection; Day 12): 0.2 (0.3)
smell/taste-family symptoms, Fitzmaurice mixed effects model, Camostat (COVID-19 infection; Day 13): 0.7 (0.3)
smell/taste-family symptoms, Fitzmaurice mixed effects model, Effect (COVID-19 infection; Day 13): 0.4 (0.3)
smell/taste-family symptoms, Fitzmaurice mixed effects model, Camostat (COVID-19 infection; Day 14): 0.8 (0.3)
smell/taste-family symptoms, Fitzmaurice mixed effects model, Effect (COVID-19 infection; Day 14): 0.4 (0.3)
mortality following SARS-CoV-1 infection (SARS-CoV-1): 30-35%
